# Data from patent US6358885B1, “Substituted phenylheterocyclic herbicides” (Mississippi State University, priority 1992, dated 2002).
# Key:
# Assay in all cases: Test G preemergence/postemergence greenhouse plant response rating 0 to 100
# smooth crabgrass = format: in vivo, Digitaria ischaemum; details: 0 to 100 scale
# Procedure, shortened: (§1)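 Scoring: visual injury at 13 to 21 days post-application, compared with untreated controls. Planting: one species per pot in greenhouse medium. Dosing: compound in non-phytotoxic solvent, within one day of sowing for preemergence or at 2–4 leaves for postemergence.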
# common purslane = format: in vivo, Portulaca oleracea; details: 0 to 100 scale
# Procedure, shortened: as §1
# annual bluegrass = format: in vivo, Poa annua; details: 0 to 100 scale
# Procedure, shortened: as §1
# johnsongrass = format: in vivo, Sorghum halepense; details: 0 to 100 scale
# Procedure, shortened: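 Greenhouse pots, one species each; non-phytotoxic solvent vehicle. Read-out: visual injury vs untreated, 13–21 DAT. Dash denotes no result.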
# broadleaf signalgrass = format: in vivo, Brachiaria plantaginea; details: 0 to 100 scale
# Procedure, shortened: as §1
# yellow nutsedge = format: in vivo, Cyperus esculentus; details: Rate 125 g/ha, 0 to 100 scale
# Procedure, shortened: as §1
# large crabgrass = format: in vivo, Digitaria sanguinalis; details: 0 to 100 scale
# Procedure, shortened: as §1
# guineagrass = format: in vivo, Panicum maximum; details: 0 to 100 scale
# Procedure, shortened: as §1
# pitted morningglory = format: in vivo, Ipomoea lacunosa; details: 0 to 100 scale
# Procedure, shortened: as §1
# peanut = format: in vivo, Arachis hypoagaea; details: 0 to 100 scale
# Procedure, shortened: as §1
# common ragweed = format: in vivo, Ambrosia elatior; details: 0 to 100 scale
# Procedure, shortened: as §1
# goosegrass = format: in vivo, Eleusine indica; details: 0 to 100 scale
# Procedure, shortened: as §1
# dallisgrass = format: in vivo, Paspalum dilatatum; details: 0 to 100 scale
# Procedure, shortened: as §1
# alfalfa = format: in vivo, Medicago ativa; details: 0 to 100 scale
# Procedure, shortened: as §1
# bermudagrass = format: in vivo, Cynodon dactylon; details: 0 to 100 scale
# Procedure, shortened: as §1
# purple nutsedge = format: in vivo, Cyperus rotundus; details: Rate 125 g/ha, 0 to 100 scale
# Procedure, shortened: as §1
# itchgrass = format: in vivo, Rottboellia exaltata; details: 0 to 100 scale
# Procedure, shortened: as §1
compound,measurement,setting,value
C=CCN1C(=O)COc2cc(F)c(-c3nn4c(c3Cl)CCCC4)cc21 [Compound 33],"Plant response rating, Smooth Crabgras","smooth crabgrass; POSTEMERGENCE, Rate 125 g/ha",0
same,"Plant response rating, Smooth Crabgras","smooth crabgrass; POSTEMERGENCE, Rate 250 g/ha",0
same,"Plant response rating, Smooth Crabgras","smooth crabgrass; PREEMERGENCE, Rate 125 g/ha",0
same,"Plant response rating, Smooth Crabgras","smooth crabgrass; PREEMERGENCE, Rate 250 g/ha",0
same,"Plant response rating, Cmn Purslane","common purslane; POSTEMERGENCE, Rate 125 g/ha",100
same,"Plant response rating, Cmn Purslane","common purslane; POSTEMERGENCE, Rate 250 g/ha",80
same,"Plant response rating, Cmn Purslane","common purslane; PREEMERGENCE, Rate 125 g/ha",0
same,"Plant response rating, Cmn Purslane","common purslane; PREEMERGENCE, Rate 250 g/ha",40
same,"Plant response rating, Ann Bluegrass","annual bluegrass; POSTEMERGENCE, Rate 125 g/ha",0
same,"Plant response rating, Ann Bluegrass","annual bluegrass; POSTEMERGENCE, Rate 250 g/ha",0
same,"Plant response rating, Ann Bluegrass","annual bluegrass; PREEMERGENCE, Rate 125 g/ha",0
same,"Plant response rating, Ann Bluegrass","annual bluegrass; PREEMERGENCE, Rate 250 g/ha",0
same,"Plant response rating, Johnsongrass","johnsongrass; POSTEMERGENCE, Rate 125 g/ha",0
same,"Plant response rating, Johnsongrass","johnsongrass; POSTEMERGENCE, Rate 250 g/ha",0
same,"Plant response rating, Johnsongrass","johnsongrass; PREEMERGENCE, Rate 125 g/ha",0
same,"Plant response rating, Johnsongrass","johnsongrass; PREEMERGENCE, Rate 250 g/ha",0
same,"Plant response rating, Brdlf Sgnlgrass","broadleaf signalgrass; POSTEMERGENCE, Rate 125 g/ha",0
same,"Plant response rating, Brdlf Sgnlgrass","broadleaf signalgrass; POSTEMERGENCE, Rate 250 g/ha",0
same,"Plant response rating, Brdlf Sgnlgrass","broadleaf signalgrass; PREEMERGENCE, Rate 125 g/ha",0
same,"Plant response rating, Brdlf Sgnlgrass","broadleaf signalgrass; PREEMERGENCE, Rate 250 g/ha",0
same,"Plant response rating, Yellow Nutsedge",yellow nutsedge; POSTEMERGENCE,0
same,"Plant response rating, Yellow Nutsedge",yellow nutsedge; PREEMERGENCE,0
same,"Plant response rating, Large Crabgrass","large crabgrass; POSTEMERGENCE, Rate 125 g/ha",0
same,"Plant response rating, Large Crabgrass","large crabgrass; POSTEMERGENCE, Rate 250 g/ha",0
same,"Plant response rating, Large Crabgrass","large crabgrass; PREEMERGENCE, Rate 125 g/ha",0
same,"Plant response rating, Large Crabgrass","large crabgrass; PREEMERGENCE, Rate 250 g/ha",0
same,"Plant response rating, Guineagrass","guineagrass; POSTEMERGENCE, Rate 125 g/ha",0
same,"Plant response rating, Guineagrass","guineagrass; POSTEMERGENCE, Rate 250 g/ha",0
same,"Plant response rating, Guineagrass","guineagrass; PREEMERGENCE, Rate 125 g/ha",0
same,"Plant response rating, Guineagrass","guineagrass; PREEMERGENCE, Rate 250 g/ha",0
same,"Plant response rating, Pit Morninglory","pitted morningglory; POSTEMERGENCE, Rate 125 g/ha",30
same,"Plant response rating, Pit Morninglory","pitted morningglory; POSTEMERGENCE, Rate 250 g/ha",100
same,"Plant response rating, Pit Morninglory","pitted morningglory; PREEMERGENCE, Rate 125 g/ha",0
same,"Plant response rating, Pit Morninglory","pitted morningglory; PREEMERGENCE, Rate 250 g/ha",0
same,"Plant response rating, Peanuts","peanut; POSTEMERGENCE, Rate 125 g/ha",0
same,"Plant response rating, Peanuts","peanut; POSTEMERGENCE, Rate 250 g/ha",0
same,"Plant response rating, Peanuts","peanut; PREEMERGENCE, Rate 125 g/ha",0
same,"Plant response rating, Peanuts","peanut; PREEMERGENCE, Rate 250 g/ha",0
same,"Plant response rating, Cmn Ragweed","common ragweed; POSTEMERGENCE, Rate 125 g/ha",80
same,"Plant response rating, Cmn Ragweed","common ragweed; POSTEMERGENCE, Rate 250 g/ha",50
same,"Plant response rating, Cmn Ragweed","common ragweed; PREEMERGENCE, Rate 125 g/ha",0
same,"Plant response rating, Cmn Ragweed","common ragweed; PREEMERGENCE, Rate 250 g/ha",0
same,"Plant response rating, Goosegrass","goosegrass; POSTEMERGENCE, Rate 125 g/ha",0
same,"Plant response rating, Goosegrass","goosegrass; POSTEMERGENCE, Rate 250 g/ha",0
same,"Plant response rating, Goosegrass","goosegrass; PREEMERGENCE, Rate 125 g/ha",0
same,"Plant response rating, Goosegrass","goosegrass; PREEMERGENCE, Rate 250 g/ha",0
same,"Plant response rating, Dallisgrass","dallisgrass; POSTEMERGENCE, Rate 125 g/ha",0
same,"Plant response rating, Dallisgrass","dallisgrass; POSTEMERGENCE, Rate 250 g/ha",0
same,"Plant response rating, Dallisgrass","dallisgrass; PREEMERGENCE, Rate 125 g/ha",0
same,"Plant response rating, Dallisgrass","dallisgrass; PREEMERGENCE, Rate 250 g/ha",0
same,"Plant response rating, Alfalfa Var.","alfalfa; POSTEMERGENCE, Rate 125 g/ha",0
same,"Plant response rating, Alfalfa Var.","alfalfa; POSTEMERGENCE, Rate 250 g/ha",0
same,"Plant response rating, Alfalfa Var.","alfalfa; PREEMERGENCE, Rate 125 g/ha",0
same,"Plant response rating, Alfalfa Var.","alfalfa; PREEMERGENCE, Rate 250 g/ha",0
same,"Plant response rating, Bermudagrass","bermudagrass; POSTEMERGENCE, Rate 125 g/ha",0
same,"Plant response rating, Bermudagrass","bermudagrass; POSTEMERGENCE, Rate 250 g/ha",0
same,"Plant response rating, Bermudagrass","bermudagrass; PREEMERGENCE, Rate 125 g/ha",0
same,"Plant response rating, Bermudagrass","bermudagrass; PREEMERGENCE, Rate 250 g/ha",0
same,"Plant response rating, Purple Nutsedge",purple nutsedge; POSTEMERGENCE,10
same,"Plant response rating, Purple Nutsedge",purple nutsedge; PREEMERGENCE,0
same,"Plant response rating, Itchgrass","itchgrass; POSTEMERGENCE, Rate 125 g/ha",0
same,"Plant response rating, Itchgrass","itchgrass; POSTEMERGENCE, Rate 250 g/ha",0
same,"Plant response rating, Itchgrass","itchgrass; PREEMERGENCE, Rate 125 g/ha",0
same,"Plant response rating, Itchgrass","itchgrass; PREEMERGENCE, Rate 250 g/ha",0
